Here are results for one compound from patent publication US20250120975A1, “INTEGRIN INHIBITORS FOR TREATMENT OF PRIMARY SCLEROSING CHOLANGITIS” (Pliant Therapeutics, Inc., priority 2023, published 2025).

The experiment relates to PCLivS from human liver tissue with biliary fibrosis (PSC, PBC). The experiment in a line: Fibrotic gene expression (NanoString) in precision cut liver slices. The format is cell-based. The settings on record: for % Inhibition of expression COL1A1 / % Inhibition of expression COL1A2: PCLivS from a single PSC liver. From the text: A human liver tissue explant was obtained from a PSC patient undergoing liver transplantation.
Slicing: To slice, 8-mm cores were punctured from the liver tissue and were stored in ice cold UW solution until slicing. A tissue core was glued onto the center of the plunger of the specimen syringe for slicing. The core was embedded in 2% low gelling temperature agarose made up in milliQ water. The thickness of the slice was adjusted to 400 μm and was sectioned into oxygenated KHB occurs. The slices were stored in cold UW solution on ice until all slices were cut.
Culture: The compounds were diluted to 1000× concentration in 100% DMSO. The compounds were diluted in a medium with a final concentration of 0.1% DMSO before transferring the slices and making a fresh medium for each 24-H medium change. Before being used for slice culture, all media was equilibrated in the incubator at culture conditions for 30 minutes. After all slices have been cut, all slices were transferred to wells prefilled with oxygenated, warmed, and equilibrated WEGG. The slices were incubated for 1 hour in the incubator at a temperature of 37° C., 5% CO2, 80% 02, 100% humidity on shaking platform set at 55 rpm. After this one-hour recovery, the slices were transferred to wells prefilled with oxygenated, warmed, and equilibrated WEGG with appropriate treatments. The slices were distributed into the treatment groups to account for inter-core variability. The slices were cultured at 37° C., 80% 02, 5% CO2, 100% humidity on shaking platform set at 55 rpm. The medium was changed after 24 hours.
The slices were removed from the well and rinsed in PBS. Excess liquid was removed. The slices were transferred to a microtube pooling all three slices from the same treatment into one tube. The pooled slices were snap frozen in liquid nitrogen and placed on dry ice until all samples were collected and then transferred to −80° C. for storage. For media collection, 140 μL of medium was pooled from each well within a treatment group and transferred to a 96-well Axygen plate. After sealing the plate, spin down occurred at 4000×g for 10 minutes at 4° C. Then, 130 μL aliquots were transferred into 3 new plates. The plates were sealed and stored at −80° C.
(S)-4-((2-methoxyethyl)(4-(5,6,7,8-tetrahydro-1,8-naphthyridin-2-yl)butyl)amino)-2-(quinazolin-4-ylamino)butanoic acid was tested at 100 nM, 1 μM, and 10 μM. OCA, an FXR agonist in clinical trials for PSC, was used at 250 nM and 2.5 μM reflecting Cmax levels observed in clinical trials. An ALK5 inhibitor (R268712) was used at 1 μM (400 times its IC50 per manufacturer) to target max inhibition of the ALK5 receptor.
Methods: Lysis buffer was made with one third RLT buffer in RNAse-free water and 2 mg/mL proteinase K. About 100-200 μL lysis buffer was added to each pool of 3 liver slices. Samples were incubated at 55° C. in the bead bath for 2 hours and 45 minutes, vortexing every 30 minute. Samples were centrifuged and the supernatant aliquoted in 15 μL aliquots into 96-well Axygen plates.
Methods: nCounter PlexSet was run according to standard protocol. Briefly, probe A and probe B were diluted with TE-tween to Working Probe Pools and mixed with hybridization buffer. This master mix was added to the A-H PlexSets and mixed. Each PlexSet was added across a row to a 96 well qPCR plate and proteinase K was added to a final concentration of 2 mg/mL. Lysate from samples was added to appropriate wells and mixed. The plate was sealed, spun, and placed in thermocycler at 67° C. for 16 hours. Hybridized samples were pooled down columns and 35 μL were loaded on a Sprint Cartridge and run on the nCounter Sprint. Data analysis was performed in nSolver using background thresholding based on negative controls, positive control normalization, reference sample normalization and normalization to housekeeping genes (GUSB, HPRT1, POLR1B, RPLP0, SRFS4, and/or UBC). […]

Where [1] appears, read: relative to inhibition with high dose ALK5 inhibitor, PCLivS from 10 livers.

Bounds are passed on as bounds.

As for `COCCN(CCCCc1ccc2c(n1)NCCC2)CC[C@H](Nc1ncnc2ccccc12)C(=O)O` [Bexotegrast, (S)-4-((2-methoxyethyl)(4-(5,6,7,8-tetrahydro-1,8-naphthyridin-2-yl)butyl)amino)-2-(quinazolin-4-ylamino)butanoic acid], where the note is “100 nM, 2 days”, the “% Inhibition of expression COL1A1” value is listed as −6% and the “% Inhibition of expression COL1A2” value is recorded as −8%. For the same compound, for the setting “1 μM, 2 days”, the “% Inhibition of expression COL1A1” value came out at 27% and the “% Inhibition of expression COL1A2” value amounted to 9%. In addition, under “10 μM, 2 days”, the “% Inhibition of expression COL1A1” value is given as 61% and the “% Inhibition of expression COL1A2” value is 41%. Also, the “dose dependence of COLIA1 and COLIA2 mRNA expression” value (PCLivS from human PSC liver tissue, 2 days) is “reduced in a dose dependent manner”. Besides, under setting [1], the “inhibition of the TGF-β-driven COL3A1 expression” value is on record as at most 41%, the “inhibition of the TGF-β-driven COLIA1 expression” value is listed as “up to 28%” and the “inhibition of the TGF-β-driven TGF-81 expression” value was at most 48%. Also, the “trend down in overall expression of COLIA1” value (≥1 μM, PCLivS from 10 livers with biliary fibrosis (6 PSC, 4 PBC), 2 days) came to 22%.
